Results: patent US11214803B2, “Modulators of YAP1 expression” (Ionis Pharmaceuticals, Inc., priority 2019, dated 2022)
Strand notation (5' to 3'): a small letter for the sugar, then the base; units joined by * are phosphorothioate-linked, units joined directly phosphodiester-linked; [ ] holds rarer units or linkages, { } end groups; capitals alone tell only the bases. k = constrained ethyl (cEt); [5mC] = 5-methylcytosine; d = 2'-deoxy (DNA)

System: Yap1 mRNA
Assay: Antisense inhibition of human Yap1 in A-431 cells by cEt gapmers, single dose (Example 3, RTS36584)
Format: cell-based
Procedure: Modified oligonucleotides were designed to target a Yap1 nucleic acid and were tested for their effect on Yap1 mRNA level in vitro. The modified oligonucleotides were tested in a series of experiments that had similar culture conditions. Cultured A-431 cells at a density of 5,000 cells per well were treated using free uptake with 2,000 nM of modified oligonucleotide. After a treatment period of approximately 48 hours, RNA was isolated from the cells and Yap1 mRNA levels were measured by quantitative real-time RTPCR. Human primer probe set RTS36584 (forward sequence […], designated herein as SEQ ID NO.: 14; reverse sequence […], designated herein as SEQ ID NO.: 15; probe sequence […], designated herein as SEQ ID NO.: 16) was used to measure mRNA levels. Yap1 mRNA levels were normalized to total RNA content, as measured by RIBOGREEN®. Results are presented in the tables below as percent control of the amount of Yap1 mRNA relative to untreated control cells (% UTC). The modified oligonucleotides with percent control values marked with an asterisk (*) target the amplicon region of the primer probe set. Additional assays may be used to measure the potency and efficacy of the modified oligonucleotides targeting the amplicon region.
The newly designed modified oligonucleotides in the Tables below were designed as 3-10-3 cEt gapmers. The gapmers are 16 nucleosides in length, wherein the central gap segment comprises of ten 2′-deoxynucleosides and is flanked by wing segments on the 5′ direction and the 3′ direction comprising three nucleosides each. Each nucleoside in the 5′ wing segment and each nucleoside in the 3′ wing segment has a cEt sugar modification. The internucleoside linkages throughout each gapmer are phosphorothioate (P═S) linkages. All cytosine residues throughout each gapmer are 5-methylcytosines.
“Start site” indicates the 5′-most nucleoside to which the gapmer is targeted in the human gene sequence. “Stop site” indicates the 3′-most nucleoside to which the gapmer is targeted human gene sequence. […] Activity of the modified oligonucleotide may be defined in a different experiment.

[1] = Table 9, A-431 cells, 5,000 cells per well, free uptake, 2,000 nM, approximately 48 hours, RTS36584, normalized to RIBOGREEN, Yap1 mRNA relative to untreated control cells
[2] = Table 35, Yap1 mRNA as percent of untreated control, 3-10-3 cEt gapmers targeting SEQ ID NO: 1 and 2, single dose
[3] = Table 34, Yap1 mRNA as percent of untreated control, 3-10-3 cEt gapmers targeting SEQ ID NO: 1 and 2, single dose
[4] = Table 8, A-431 cells, 5,000 cells per well, free uptake, 2,000 nM, approximately 48 hours, RTS36584, normalized to RIBOGREEN, Yap1 mRNA relative to untreated control cells
[5] = Table 13, A-431 cells, 5,000 cells per well, free uptake, 2,000 nM modified oligonucleotide, approx. 48 hours, RTS36584, normalized to RIBOGREEN, Yap1 mRNA relative to untreated control cells
[6] = Table 28, Yap1 mRNA as percent of untreated control, 3-10-3 cEt gapmers targeting SEQ ID NO.: 1, and 2
[7] = Table 26, Yap1 mRNA by 3-10-3 cEt gapmers targeting SEQ ID NO.: 1, and 2, percent of untreated control
[8] = Table 12, A-431 cells, 5,000 cells per well, free uptake, 2,000 nM modified oligonucleotide, approx. 48 hours, RTS36584, normalized to RIBOGREEN, Yap1 mRNA relative to untreated control cells
[9] = Table 29, Yap1 mRNA as percent of untreated control, 3-10-3 cEt gapmers targeting SEQ ID NO.: 1, and 2
[10] = Table 27, Yap1 mRNA by 3-10-3 cEt gapmers targeting SEQ ID NO.: 1, and 2, percent of untreated control
[11] = Table 10, A-431 cells, 5,000 cells per well, free uptake, 2,000 nM oligonucleotide, approx. 48 hours, primer probe set RTS36584, Yap1 mRNA normalized to RIBOGREEN, percent of untreated control

958676 (kG*kA*kA*d[5mC]*dT*dT*dA*dG*dT*dT*d[5mC]*d[5mC]*d[5mC]*kT*kA*kT; antisense) [Compound 958676]
YAP1 (% UTC) [1]: 34 % UTC

1076117 (k[5mC]*kT*kA*dG*dA*dA*dA*dA*dT*dA*dG*d[5mC]*d[5mC]*k[5mC]*kA*kT; antisense) [compound 1076117]
YAP1 (% UTC) [2]: 15 % UTC

1075540 (kG*k[5mC]*kT*dT*dA*dA*dG*dG*dG*dA*dT*dG*dG*kA*kA*k[5mC]; antisense) [compound 1075540]
YAP1 (% UTC) [3]: 78 % UTC

958365 (antisense kG*k[5mC]*k[5mC]*dA*dT*dG*dT*dT*dG*dT*dT*dG*dT*k[5mC]*kT*kG) [Compound 958365]
YAP1 (% UTC) [4]: 34 % UTC

958348 (k[5mC]*kG*kA*dG*dT*d[5mC]*d[5mC]*d[5mC]*d[5mC]*dG*d[5mC]*dG*dG*kA*k[5mC]*kG; antisense) [Compound 958348]
YAP1 (% UTC) [4]: 122 % UTC

958810 (kT*kT*kA*dT*dA*dT*dA*d[5mC]*dG*dG*dG*dA*dA*kA*kA*kT; antisense) [Compound 958810]
YAP1 (% UTC) [5]: 47 % UTC

958611 (antisense kG*kA*kG*d[5mC]*dA*dT*dG*d[5mC]*dT*d[5mC]*dT*dT*dA*k[5mC]*kA*kT) [Compound 958611]
YAP1 (% UTC) [1]: 92 % UTC

1075918 (antisense k[5mC]*kT*kT*dA*dA*dA*d[5mC]*dT*dA*dA*d[5mC]*dT*dG*kT*kT*kG) [compound 1075918]
YAP1 (% UTC) [6]: 82 % UTC

1075660 (antisense k[5mC]*kA*kA*dA*dG*dT*dA*dA*dA*dA*dA*dA*d[5mC]*kG*kG*kT) [compound 1075660]
YAP1 (% UTC) [7]: 72 % UTC

958819 (kT*kG*k[5mC]*dT*dT*d[5mC]*dA*dA*d[5mC]*dA*dT*dT*dG*kT*kT*k[5mC]; antisense) [Compound 958819]
YAP1 (% UTC) [8]: 9 % UTC

958545 (kA*k[5mC]*kT*d[5mC]*dT*dA*dG*dT*dT*dA*d[5mC]*dA*dT*k[5mC]*kA*kT; antisense) [Compound 958545]
YAP1 (% UTC) [5]: 3 % UTC

1074837 (kT*kA*kA*d[5mC]*dA*dA*d[5mC]*dA*dT*dG*d[5mC]*dT*dT*kG*k[5mC]*kG; antisense) [compound 1074837]
YAP1 (% UTC) [2]: 11 % UTC

958484 (antisense kG*k[5mC]*kA*dG*d[5mC]*dA*dA*dT*dG*dG*dA*d[5mC]*dA*kA*kG*kG) [Compound 958484]
YAP1 (% UTC) [8]: 2 % UTC

958799 (antisense kA*kT*kT*dA*d[5mC]*dT*d[5mC]*dA*dA*dT*d[5mC]*dA*dT*kG*kG*kT) [Compound 958799]
YAP1 (% UTC) [8]: 2 % UTC

958354 (antisense kG*kT*k[5mC]*dG*dG*dT*d[5mC]*dT*d[5mC]*d[5mC]*dG*dA*dG*kT*k[5mC]*k[5mC]) [Compound 958354]
YAP1 (% UTC) [4]: 31 % UTC

1075566 (kA*kT*kA*dT*dA*dT*dA*dA*d[5mC]*dA*dG*dG*d[5mC]*k[5mC]*kA*k[5mC]; antisense) [compound 1075566]
YAP1 (% UTC) [6]: 50 % UTC

958364 (antisense k[5mC]*kA*kT*dG*dT*dT*dG*dT*dT*dG*dT*d[5mC]*dT*kG*kA*kT) [Compound 958364]
YAP1 (% UTC) [4]: 19 % UTC

1075407 (antisense kG*kA*kA*d[5mC]*dT*dA*dT*dA*dT*dA*dA*d[5mC]*d[5mC]*kT*kG*kA) [compound 1075407]
YAP1 (% UTC) [9]: 32 % UTC

1074703 (antisense k[5mC]*kG*kG*dT*dG*dT*dA*dA*dG*dA*d[5mC]*dA*dA*kG*kT*k[5mC]) [compound 1074703]
YAP1 (% UTC) [9]: 16 % UTC

958377 (antisense kG*k[5mC]*kT*dG*dG*dG*dA*dT*dT*dG*dA*dT*dA*kT*kT*k[5mC]) [Compound 958377]
YAP1 (% UTC) [4]: 9 % UTC

1076206 (k[5mC]*kA*kA*dT*dA*dA*dA*d[5mC]*dT*dT*dA*d[5mC]*d[5mC]*k[5mC]*kT*kT; antisense) [compound 1076206]
YAP1 (% UTC) [6]: 55 % UTC

1075317 (antisense kG*kT*kA*dT*dT*d[5mC]*dG*d[5mC]*d[5mC]*dT*d[5mC]*d[5mC]*dT*kG*k[5mC]*kA) [compound 1075317]
YAP1 (% UTC) [2]: 27 % UTC

958550 (k[5mC]*k[5mC]*kT*dG*dT*dA*dG*dA*d[5mC]*dA*d[5mC]*dA*dT*kA*k[5mC]*kT; antisense) [Compound 958550]
YAP1 (% UTC) [5]: 4 % UTC

958574 (k[5mC]*kT*kG*dG*d[5mC]*dA*dA*dA*dT*dT*dA*dT*dA*kG*kG*k[5mC]; antisense) [Compound 958574]
YAP1 (% UTC) [8]: 13 % UTC

958524 (kG*k[5mC]*kA*d[5mC]*dA*dT*dT*dA*dT*dG*dA*dA*d[5mC]*k[5mC]*kT*kA; antisense) [Compound 958524]
YAP1 (% UTC) [8]: 13 % UTC

1075181 (kT*kT*kA*dT*dA*dT*dT*dA*d[5mC]*dT*dA*d[5mC]*dA*kA*k[5mC]*k[5mC]; antisense) [compound 1075181]
YAP1 (% UTC) [10]: 15 % UTC

958443 (antisense k[5mC]*kT*k[5mC]*d[5mC]*dA*d[5mC]*dG*dG*dG*d[5mC]*d[5mC]*dG*dA*kG*kG*kT) [Compound 958443]
YAP1 (% UTC) (Table 11, A-431 cells, 5,000 cells per well, free uptake, 2,000 nM oligonucleotide, approx. 48 hours, primer probe set RTS36584, Yap1 mRNA normalized to RIBOGREEN, percent of untreated control): 90 % UTC

1075861 (antisense kT*kA*kA*d[5mC]*dT*dA*dT*dA*dA*dG*d[5mC]*dT*dA*kT*kG*kT) [compound 1075861]
YAP1 (% UTC) [2]: 78 % UTC

958419 (antisense kT*kA*kA*dG*dA*dG*d[5mC]*d[5mC]*dT*dA*d[5mC]*d[5mC]*dT*kG*kA*k[5mC]) [Compound 958419]
YAP1 (% UTC) [4]: 68 % UTC

958634 (antisense kT*k[5mC]*k[5mC]*dT*dT*dA*dA*d[5mC]*d[5mC]*d[5mC]*dG*dG*dG*kT*kT*kT) [Compound 958634]
YAP1 (% UTC) [8]: 61 % UTC

958566 (kA*k[5mC]*k[5mC]*dT*dA*dT*dG*dA*dA*d[5mC]*dT*dA*dT*kT*kA*kT; antisense) [Compound 958566]
YAP1 (% UTC) [1]: 18 % UTC

1076332 (antisense kT*kA*kT*dA*dA*dG*dG*dA*dA*dT*dG*dG*d[5mC]*kA*kA*k[5mC]) [compound 1076332]
YAP1 (% UTC) [7]: 107 % UTC

958697 (antisense k[5mC]*kT*kA*dA*dA*dG*dA*dT*dG*dA*d[5mC]*dT*dA*k[5mC]*kT*kG) [Compound 958697]
YAP1 (% UTC) [11]: 39 % UTC

1076244 (k[5mC]*kA*kA*dT*dT*dT*dG*dG*dG*dA*dT*dA*dT*kT*k[5mC]*kG; antisense) [compound 1076244]
YAP1 (% UTC) [3]: 14 % UTC

1076173 (k[5mC]*kA*kA*dT*dA*dT*dA*dT*d[5mC]*d[5mC]*dT*dG*dA*kG*kA*kT; antisense) [compound 1076173]
YAP1 (% UTC) [10]: 91 % UTC

958557 (k[5mC]*kA*k[5mC]*dA*dA*d[5mC]*d[5mC]*dA*dA*d[5mC]*dT*dA*dT*kT*kA*k[5mC]; antisense) [Compound 958557]
YAP1 (% UTC) [11]: 10 % UTC

1074996 (antisense kA*kA*kT*dA*dA*dA*dT*dG*d[5mC]*dT*dT*dA*d[5mC]*kG*kG*kG) [compound 1074996]
YAP1 (% UTC) [3]: 60 % UTC

1075789 (kA*kA*kT*dT*dA*d[5mC]*dA*dA*dG*d[5mC]*dT*dA*dA*kT*kG*k[5mC]; antisense) [compound 1075789]
YAP1 (% UTC) [10]: 79 % UTC
